Reference: PubChem BioAssay (NCI)
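All cell lines were grown in 96-well plates and treated with compound for 48 hours. GI50 = concentration required for 50% inhibition of growth. TGI is the concentration that stops growth completely.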

Experiments:
Test in all cases: NCI-60 cell line screen, 48 h
[1] = tested on: HT29 colon
[2] = tested on: CAKI-1 renal
[3] = tested on: OVCAR-8 ovarian
[4] = tested on: SN12C renal
[5] = tested on: A549 NSCLC
[6] = tested on: HCT-116 colon
[7] = tested on: HL-60(TB) leukemia
[8] = tested on: NCI-H522 lung
[9] = tested on: BT-549 breast
[10] = tested on: IGROV1 ovarian
[11] = tested on: OVCAR-5 ovarian
[12] = tested on: HCC-2998 colon
[13] = tested on: U251 CNS
[14] = tested on: UACC-257 melanoma
[15] = tested on: T-47D breast
[16] = tested on: HCT-15 colon
[17] = tested on: TK-10 renal
[18] = tested on: UACC-62 melanoma
[19] = tested on: DU-145 prostate
[20] = tested on: RPMI-8226 leukemia
[21] = tested on: OVCAR-3 ovarian
[22] = tested on: COLO 205 colon
[23] = tested on: M14 melanoma
[24] = tested on: NCI-H226 lung
[25] = tested on: HOP-92 NSCLC
[26] = tested on: 786-0 renal
[27] = tested on: SNB-75 CNS
[28] = tested on: HS 578T breast
[29] = tested on: SK-MEL-2 melanoma
[30] = tested on: UO-31 renal
[31] = tested on: SF-295 CNS
[32] = tested on: MCF7 breast
[33] = tested on: SW-620 colon
[34] = tested on: MDA-MB-435
[35] = tested on: OVCAR-4 ovarian
[36] = tested on: CCRF-CEM leukemia
[37] = tested on: SK-OV-3 ovarian
[38] = tested on: SR leukemia
[39] = tested on: ACHN renal
[40] = tested on: HOP-62 NSCLC
[41] = tested on: MDA-MB-231 breast
[42] = tested on: NCI/ADR-RES ovarian
[43] = tested on: LOX IMVI melanoma
[44] = tested on: SK-MEL-5 melanoma
[45] = tested on: KM12 colon
[46] = tested on: SNB-19 CNS
[47] = tested on: SF-268 CNS
[48] = tested on: SF-539 CNS
[49] = tested on: RXF 393 renal
[50] = tested on: PC-3 prostate
[51] = tested on: NCI-H460 lung
[52] = tested on: EKVX NSCLC
[53] = tested on: K-562 leukemia
[54] = tested on: MOLT-4 leukemia
[55] = tested on: A498 renal
[56] = tested on: MALME-3M melanoma
[57] = tested on: SK-MEL-28 melanoma

Cc1ccc2c(n1)C(=O)C(Cl)=C(Nc1ccc(C(=O)OC(C)(C)C)cc1)C2=O
GI50 [1]: > 92.5 µM
TGI [1]: > 92.5 µM
GI50 [2]: 14.4 µM
TGI [2]: 30.6 µM
GI50 [3]: > 92.5 µM
TGI [3]: > 92.5 µM
GI50 [4]: > 92.5 µM
TGI [4]: > 92.5 µM
GI50 [5]: > 92.5 µM
TGI [5]: > 92.5 µM
GI50 [6]: 15.5 µM
TGI [6]: 32 µM
GI50 [7]: 7.65 µM
TGI [7]: 71.1 µM
GI50 [8]: 16.3 µM
TGI [8]: 35.7 µM
GI50 [9]: > 92.5 µM
TGI [9]: > 92.5 µM
GI50 [10]: 71.4 µM
TGI [10]: > 92.5 µM
GI50 [11]: > 92.5 µM
TGI [11]: > 92.5 µM
GI50 [12]: > 92.5 µM
TGI [12]: > 92.5 µM
GI50 [13]: > 92.5 µM
TGI [13]: > 92.5 µM
GI50 [14]: 31.7 µM
TGI [14]: > 92.5 µM
GI50 [15]: 16.6 µM
TGI [15]: 55.4 µM
GI50 [16]: 15.4 µM
TGI [16]: 33.9 µM
GI50 [17]: > 92.5 µM
TGI [17]: > 92.5 µM
GI50 [18]: > 92.5 µM
TGI [18]: > 92.5 µM
GI50 [19]: > 92.5 µM
TGI [19]: > 92.5 µM
GI50 [20]: 23.3 µM
TGI [20]: > 92.5 µM
GI50 [21]: 13.8 µM
TGI [21]: 30.4 µM
GI50 [22]: 21.9 µM
TGI [22]: 63 µM
GI50 [23]: 29.2 µM
TGI [23]: > 92.5 µM
GI50 [24]: > 92.5 µM
TGI [24]: > 92.5 µM
GI50 [25]: 16.4 µM
TGI [25]: 36.7 µM
GI50 [26]: > 92.5 µM
TGI [26]: > 92.5 µM
GI50 [27]: > 92.5 µM
TGI [27]: > 92.5 µM
GI50 [28]: > 92.5 µM
TGI [28]: > 92.5 µM
GI50 [29]: > 92.5 µM
TGI [29]: > 92.5 µM
GI50 [30]: 18.9 µM
TGI [30]: 53.1 µM
GI50 [31]: > 92.5 µM
TGI [31]: > 92.5 µM
GI50 [32]: 16 µM
TGI [32]: 35.3 µM
GI50 [33]: 18.5 µM
TGI [33]: 44 µM
GI50 [34]: 90.3 µM
TGI [34]: > 92.5 µM
GI50 [35]: 12.7 µM
TGI [35]: 29.2 µM
GI50 [36]: 5.9 µM
TGI [36]: > 92.5 µM
GI50 [37]: > 92.5 µM
TGI [37]: > 92.5 µM
GI50 [38]: 3.44 µM
TGI [38]: 55.7 µM
GI50 [39]: 15.8 µM
TGI [39]: 28.6 µM
GI50 [40]: > 92.5 µM
TGI [40]: > 92.5 µM
GI50 [41]: 30.2 µM
TGI [41]: > 92.5 µM
GI50 [42]: > 92.5 µM
TGI [42]: > 92.5 µM
GI50 [43]: 16.9 µM
TGI [43]: 33 µM
GI50 [44]: > 92.5 µM
TGI [44]: > 92.5 µM
GI50 [45]: > 92.5 µM
TGI [45]: > 92.5 µM
GI50 [46]: > 92.5 µM
TGI [46]: > 92.5 µM
GI50 [47]: > 92.5 µM
TGI [47]: > 92.5 µM
GI50 [48]: > 92.5 µM
TGI [48]: > 92.5 µM
GI50 [49]: 12.8 µM
TGI [49]: 25.5 µM
GI50 [50]: > 92.5 µM
TGI [50]: > 92.5 µM
GI50 [51]: > 92.5 µM
TGI [51]: > 92.5 µM
GI50 [52]: > 92.5 µM
TGI [52]: > 92.5 µM
GI50 [53]: 3.77 µM
TGI [53]: > 92.5 µM
GI50 [54]: 4.65 µM
TGI [54]: 72.8 µM
GI50 [55]: > 92.5 µM
TGI [55]: > 92.5 µM
GI50 [56]: 15.7 µM
TGI [56]: 30.5 µM
GI50 [57]: 18.2 µM
TGI [57]: 38.5 µM

COc1ccc2[nH]cc(-c3cc(N)n4nc(-c5c[nH]c6ccc(OC)cc56)cc4n3)c2c1
GI50 [1]: 1.79 µM
TGI [1]: 3.34 µM
GI50 [3]: 1.84 µM
TGI [3]: 3.72 µM
GI50 [4]: 1.98 µM
TGI [4]: 3.91 µM
GI50 [7]: 1.92 µM
TGI [7]: 4.73 µM
GI50 [8]: 1.72 µM
TGI [8]: 3.32 µM
GI50 [9]: 5.54 µM
TGI [9]: 21.2 µM
GI50 [10]: 2.26 µM
TGI [10]: 5.73 µM
GI50 [11]: 2.44 µM
TGI [11]: 6.31 µM
GI50 [12]: 1.97 µM
TGI [12]: 3.59 µM
GI50 [14]: 1.73 µM
TGI [14]: 3.17 µM
GI50 [15]: 1.91 µM
TGI [15]: 4.13 µM
GI50 [16]: 1.99 µM
TGI [16]: 4.98 µM
GI50 [17]: 2.27 µM
TGI [17]: 5.23 µM
GI50 [19]: 1.93 µM
TGI [19]: 3.58 µM
GI50 [21]: 1.95 µM
TGI [21]: 3.83 µM
GI50 [22]: 1.65 µM
TGI [22]: 3.13 µM
GI50 [23]: 1.81 µM
TGI [23]: 3.38 µM
GI50 [29]: 1.79 µM
TGI [29]: 3.5 µM
GI50 [30]: 1.65 µM
TGI [30]: 3.55 µM
GI50 [31]: 1.87 µM
TGI [31]: 3.49 µM
GI50 [33]: 1.68 µM
TGI [33]: 3.26 µM
GI50 [34]: 1.74 µM
TGI [34]: 3.26 µM
GI50 [35]: 2.28 µM
TGI [35]: 5.32 µM
GI50 [36]: 2.81 µM
TGI [36]: 8.78 µM
GI50 [39]: 1.85 µM
TGI [39]: 3.45 µM
GI50 [42]: 3.09 µM
TGI [42]: 14.3 µM
GI50 [43]: 2.23 µM
TGI [43]: 3.85 µM
GI50 [44]: 1.7 µM
TGI [44]: 3.08 µM
GI50 [45]: 1.88 µM
TGI [45]: 3.59 µM
GI50 [46]: 3.25 µM
TGI [46]: 14.2 µM
GI50 [47]: 2.13 µM
TGI [47]: 4.77 µM
GI50 [49]: 1.67 µM
TGI [49]: 3.23 µM
GI50 [52]: 1.73 µM
TGI [52]: 3.58 µM
GI50 [53]: 2.4 µM
TGI [53]: > 100 µM
GI50 [55]: 1.92 µM
TGI [55]: 3.86 µM
GI50 [57]: 1.82 µM
TGI [57]: 3.31 µM
